Experiments:
HCC1937 cells = test: MTT cell viability assay, HCC1937; format: cell-based; settings: HCC1937, 72 hours, 0.04–40 µM for 1 and 2, 0.04–20 µM for 3
Description: The MTT (3-[4,5-dimethylthiazol-2-yl]−2,5-diphenyltetrazolium bromide) assays were performed as previously described. […] The cells were incubated for 24 hours before addition of galectin-3 inhibitors. The inhibitors were diluted in PBS from their respective stock solution in DMSO (see Galectin-3 inhibitors) and used at final concentrations ranging from 0.04 to 40 μM. DMSO was adjusted to make the final DMSO concentration 0.2% for all inhibitor concentrations, including the control sample (no inhibitor). After 72 hours of treatment, 20 μl of 5 mg/ml MTT solution (in PBS) was added to each well and incubation continued for 1 hour at 37 °C. Thereafter, the MTT containing medium was removed and 100 μl of DMSO was added per well and the plates swirled gently for 10 minutes to dissolve the cells and the purple formazan product precipitate. Absorbance was monitored at 540 nm using a Labsystems iEMS Reader MF (Labsystems Oy, Helsinki, Finland) and the software DeltaSoft II v.4.14 (Biometallics Inc., Princeton, NJ, USA).

MIA PaCa-2 cells = test: MTT assay, MIA PaCa-2 pancreatic cancer cells; format: cell-based; settings: MIA PaCa-2, 72 hours
Description: The MTT (3-[4,5-dimethylthiazol-2-yl]−2,5-diphenyltetrazolium bromide) assays were performed as previously described. In brief, cells were seeded in 96-well plates (6000 cells/well for MCF-7 and HCC1937 and 5000 cells for JIMT-1 in 180 μl fully-supplemented medium as described under Cell culture). The cells were incubated for 24 hours before addition of galectin-3 inhibitors. The inhibitors were diluted in PBS from their respective stock solution in DMSO (see Galectin-3 inhibitors) and used at final concentrations ranging from 0.04 to 40 μM. DMSO was adjusted to make the final DMSO concentration 0.2% for all inhibitor concentrations, including the control sample (no inhibitor). After 72 hours of treatment, 20 μl of 5 mg/ml MTT solution (in PBS) was added to each well and incubation continued for 1 hour at 37 °C. […] Absorbance was monitored at 540 nm using a Labsystems iEMS Reader MF (Labsystems Oy, Helsinki, Finland) and the software DeltaSoft II v.4.14 (Biometallics Inc., Princeton, NJ, USA). […]
(§1) Fluorescence anisotropy assay
(§2) The affinity between inhibitor 1 and the carbohydrate recognition domain (CRD) of galectin-8C and between inhibitor 3 and the CRD of galectin-2, -4N, -4C, 8C, and -9C was determined using the fluorescence anisotropy assay described in the main article. […]

L56Br-C1 cells = test: Growth curves, L56Br-C1 breast cancer cells; format: cell-based; settings: L56Br-C1, 10 µM
Description: METHODS (not described in main article)
The AsPC-1, BxPc-3, MIA PaCa-2, and PanC-1 pancreatic cancer cell lines were purchased from the American Type Culture Collection (ATCC) (Manassas, VA, USA). AsPC-1 and BxPc-3 cell lines were cultured in RPMI-1640 medium, and MIA PaCa-2 and PanC-1 in Dulbecco's Modified Eagle Medium (DMEM)/Ham's F12 medium mixture (1:1). The medium of all four pancreatic cancer cell lines was supplemented with 10 % fetal bovine serum (FBS), 100 U/ml penicillin, and 100 μg/ml streptomycin. The L56Br-C1 breast cancer cell line was established at Lund University (Lund, Sweden)1, and was cultured in RPMI-1640 medium supplemented with 10 % heat-inactivated FBS, 100 U/ml penicillin, 100 μg/ml streptomycin, 1 mM non-essential amino acids, and 10 µg/ml insulin. The MCF-10A normal-like breast cell line was obtained from ATCC and was cultured in the same medium mixture as L56Br-C1 with the addition of 20 ng/ml epidermal growth factor, 50 ng/ml cholera toxin, and 500 ng/ml hydrocortisone.
as §1
as §2, with “article. Experimental conditions used for each galectin” for “article.”

galectin-1 = system: galectin-1; set-up: method as in Delaine et al., Salameh et al., Peterson et al.; settings: lower compared to galectin-3; ref Delaine et al., Salameh et al., Peterson et al.; cited from earlier work
[1] = system: pathological corneal neovascularization and fibrosis; set-up: method as in PMID 27356186, PMID 28055102; settings: cited from earlier work

OC[C@H]1O[C@@H](S[C@@H]2O[C@H](CO)[C@H](O)[C@H](n3cc(-c4cccc(F)c4)nn3)[C@H]2O)[C@H](O)[C@@H](n2cc(-c3cccc(F)c3)nn2)[C@H]1O [compound 1]
cell viability (MTT) (HCC1937 cells): no apparent change in cell viability | toxicity (MTT) (MIA PaCa-2 cells): low toxicity | cell proliferation (growth curves) (L56Br-C1 cells): no effect | affinity for galectin-1 (galectin-1): high affinity | effect in pathological corneal neovascularization and fibrosis [1]: therapeutic effects

From paper PMC6379368, “Extracellular and intracellular small-molecule galectin-3 inhibitors” (Scientific Reports, 2019)
